The record followed here is patent US11324706B2, “Composition for inhibiting growth of breast cancer stem cells containing phenylacetaldehyde” (JEJU NATIONAL UNIVERSITY INDUSTRY-ACADEMIC COOPERATION …, priority 2016, dated 2022).

In this assay the test system is MCF-7 cell-derived mammospheres. As to the kind of experiment: Mammosphere formation, MCF-7-derived. It is filed as cell-based, human. The following applies: volatile materials exposed to MCF-7 (FIG. 5B). How it is done:
FIGS. 4A, 4B and 4C show effects of PAA on formation of MCF-7 cell-derived mammospheres. Primary mammospheres were cultured together with PAA (0.2 and 0.5 mM) or DMSO;
Human breast cancer cells, i.e., MCF-7 and MDA-MB-231, were commercially obtained from American Type Culture Collection (ATCC; Manassas, Va., USA). MCF-7 and MDA-MB-231 cells were cultured in Dulbecco's modified essential medium (DMEM; Hyclone, Logan, Utah, USA) containing 10% fetal bovine serum (FBS; Hyclone), 100 U/mL of penicillin, and 100 μg/mL of streptomycin (Hyclone). The MCF-7 and MDA-MB-231 cells were maintained at 37° C. in a 5% CO2-containing humidified incubator. The cells were plated at a density of 1×10^6 on a 10 cm petri dish. In order to establish primary mammospheres, single cell-suspended MCF-7 and MDA-MB-231 cells were seeded at a density (cells/well) of 3.5×10^4 to 4×10^4 and 0.5×10^4 to 1×10^4, respectively, on ultra-low attachment 6-well plates containing 2 ml complete MammoCult™ medium (StemCell Technologies, Vancouver, BC, Canada). The complete MammoCult™ medium was supplemented with 4 μg/mL of heparin, 0.48 μg/mL of hydrocortisone, 100 U/mL of penicillin and 100 μg/mL of streptomycin. The cells were cultured for 7 days in a 37° C. 5% CO2 incubator.
At 7 days of culture, the cell culture plate was disposed on a scanner (Epson Perfection V700 PHOTO, Epson Korea, Co, Seoul, Korea) to obtain an 8 bit gray scale image of mammospheres. The image was obtained at a low resolution (300 dpi) using an NICE software program and downloaded from ftp://ftp.nist.gov/pub/physics/mLclarke/NICE. For counting, preferred numbers of rows and columns (for example, 2×3 of 6-well plate) were selected to form regions of interest (ROIs), and an oval setting of the NICE program was selected and then respective ROIs were defined by moving the shapes of provided ROIs and controlling the sizes thereof. The background signal of the image was negated using a critical algorithm and the selected image was automatically counted. Regarding the mammosphere formation analysis, formation efficiency of mammospheres (MFE, %) was determined in accordance with the number of mammospheres per well/the total number of cells plated per well×100.

Consider `O=CCCc1ccccc1` [3-phenylpropionaldehyde], for which the “formation of primary mammospheres derived from MCF-7 cells” value was “inhibited”.
Next, `CC(C=O)c1ccccc1` (centres unmarked) [2-phenylpropionaldehyde]: “potently inhibited”.
